From ChEMBL document CHEMBL1139142, “Discovery of 4-amino-5,6-biaryl-furo[2,3-d]pyrimidines as inhibitors of Lck: development of an expedient and divergent synthetic route and preliminary SAR” (Bioorg Med Chem Lett, 2007) come the findings set out here.

Data set [1] relates to T-cell. The experiment in a line: Inhibition of T cell activation in human mixed lymphocyte reaction. The data set is classed as functional, cell-based.
For data set [2], the target named is Activated CDC42 kinase 1 (Homo sapiens, UniProt Q07912). The experiment in a line: Inhibition of Ack1.
Activated CDC42 kinase 1, sequence (Q07912 whole entry): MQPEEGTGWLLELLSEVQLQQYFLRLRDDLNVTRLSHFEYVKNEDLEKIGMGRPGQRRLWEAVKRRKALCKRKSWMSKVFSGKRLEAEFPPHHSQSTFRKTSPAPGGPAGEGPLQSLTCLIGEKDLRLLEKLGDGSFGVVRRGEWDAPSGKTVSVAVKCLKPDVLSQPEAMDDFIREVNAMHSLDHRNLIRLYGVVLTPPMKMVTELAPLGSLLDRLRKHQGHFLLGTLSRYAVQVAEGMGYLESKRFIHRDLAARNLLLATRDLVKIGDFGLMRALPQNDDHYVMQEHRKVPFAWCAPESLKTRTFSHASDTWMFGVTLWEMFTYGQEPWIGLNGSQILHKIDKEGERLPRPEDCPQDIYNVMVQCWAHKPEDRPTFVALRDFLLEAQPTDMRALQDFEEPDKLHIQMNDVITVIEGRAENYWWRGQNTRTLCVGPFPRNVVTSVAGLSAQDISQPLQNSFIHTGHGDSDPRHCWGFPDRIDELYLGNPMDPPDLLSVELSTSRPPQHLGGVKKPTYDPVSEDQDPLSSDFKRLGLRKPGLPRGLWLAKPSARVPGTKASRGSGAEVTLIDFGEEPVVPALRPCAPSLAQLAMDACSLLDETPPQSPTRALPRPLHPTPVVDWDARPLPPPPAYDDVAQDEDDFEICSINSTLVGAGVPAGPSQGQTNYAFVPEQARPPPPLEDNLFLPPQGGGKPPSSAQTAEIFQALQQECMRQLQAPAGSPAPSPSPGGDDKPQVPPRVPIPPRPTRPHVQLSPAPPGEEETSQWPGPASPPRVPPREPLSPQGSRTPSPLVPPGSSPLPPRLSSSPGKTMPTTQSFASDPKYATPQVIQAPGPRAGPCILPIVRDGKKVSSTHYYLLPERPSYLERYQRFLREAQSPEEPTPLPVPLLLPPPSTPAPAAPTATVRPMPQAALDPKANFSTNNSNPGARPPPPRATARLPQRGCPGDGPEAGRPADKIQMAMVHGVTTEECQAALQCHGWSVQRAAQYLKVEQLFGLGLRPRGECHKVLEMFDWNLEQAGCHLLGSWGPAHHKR
The target of data set [3] is Tyrosine-protein kinase Lck (Homo sapiens, UniProt P06239). The experiment in a line: Inhibition of Lck.
Tyrosine-protein kinase Lck, sequence (P06239 whole entry): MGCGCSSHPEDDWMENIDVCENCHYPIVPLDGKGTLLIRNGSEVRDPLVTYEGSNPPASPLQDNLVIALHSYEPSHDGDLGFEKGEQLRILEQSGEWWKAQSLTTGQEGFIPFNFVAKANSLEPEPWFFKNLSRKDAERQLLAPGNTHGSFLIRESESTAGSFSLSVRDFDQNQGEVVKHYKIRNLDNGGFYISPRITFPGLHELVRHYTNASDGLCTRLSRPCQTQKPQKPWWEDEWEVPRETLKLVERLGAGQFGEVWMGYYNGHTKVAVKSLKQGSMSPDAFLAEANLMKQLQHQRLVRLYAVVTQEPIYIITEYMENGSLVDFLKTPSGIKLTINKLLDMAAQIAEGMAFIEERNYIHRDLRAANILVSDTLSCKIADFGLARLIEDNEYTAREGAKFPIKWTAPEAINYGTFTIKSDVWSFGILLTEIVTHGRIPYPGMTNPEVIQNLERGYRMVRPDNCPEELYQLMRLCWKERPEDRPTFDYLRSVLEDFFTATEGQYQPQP
Data set [4] has as its system T-cell. The experiment in a line: Inhibition of anti-CD3/CD28-induced IL2 secretion in human T cells. The format is functional, cell-based.
Data set [5] in a line: Half life in Sprague-Dawley rat at 1 mg/kg, iv. Also noted: dose 1 mg/kg, route intravenous. The note with it: in vivo. The format is ADME, organism-based.
A short description of data set [6]: Oral bioavailability in Sprague-Dawley rat at 5 mg/kg. The format is ADME, organism-based. The following applies: in vivo.
The nature of data set [7]: Volume of distribution at steady state in Sprague-Dawley rat at 1 mg/kg, iv. The format is ADME, organism-based. On the set-up: dose 1 mg/kg, route intravenous. The note with it: in vivo, read-out: Vdss.
Data set [8] in a line: Cmax in Sprague-Dawley rat at 5 mg/kg, po. The format is ADME, organism-based. Also noted: dose 5 mg/kg, route oral. The note with it: in vivo.
The nature of data set [9]: Clearance in Sprague-Dawley rat at 1 mg/kg, iv. Also noted: dose 1 mg/kg, route intravenous. The format is ADME, organism-based. The note with it: in vivo.
A short description of data set [10]: AUC (0 to infinity) in Sprague-Dawley rat at 5 mg/kg, po. The data set is classed as ADME, organism-based. On the set-up: time infinity, dose 5 mg/kg, route oral. The note with it: plasma.
The target of data set [11] is Angiopoietin-1 receptor (Homo sapiens, UniProt Q02763). As to the kind of experiment: Inhibition of Tie2.
Angiopoietin-1 receptor, sequence (Q02763 whole entry): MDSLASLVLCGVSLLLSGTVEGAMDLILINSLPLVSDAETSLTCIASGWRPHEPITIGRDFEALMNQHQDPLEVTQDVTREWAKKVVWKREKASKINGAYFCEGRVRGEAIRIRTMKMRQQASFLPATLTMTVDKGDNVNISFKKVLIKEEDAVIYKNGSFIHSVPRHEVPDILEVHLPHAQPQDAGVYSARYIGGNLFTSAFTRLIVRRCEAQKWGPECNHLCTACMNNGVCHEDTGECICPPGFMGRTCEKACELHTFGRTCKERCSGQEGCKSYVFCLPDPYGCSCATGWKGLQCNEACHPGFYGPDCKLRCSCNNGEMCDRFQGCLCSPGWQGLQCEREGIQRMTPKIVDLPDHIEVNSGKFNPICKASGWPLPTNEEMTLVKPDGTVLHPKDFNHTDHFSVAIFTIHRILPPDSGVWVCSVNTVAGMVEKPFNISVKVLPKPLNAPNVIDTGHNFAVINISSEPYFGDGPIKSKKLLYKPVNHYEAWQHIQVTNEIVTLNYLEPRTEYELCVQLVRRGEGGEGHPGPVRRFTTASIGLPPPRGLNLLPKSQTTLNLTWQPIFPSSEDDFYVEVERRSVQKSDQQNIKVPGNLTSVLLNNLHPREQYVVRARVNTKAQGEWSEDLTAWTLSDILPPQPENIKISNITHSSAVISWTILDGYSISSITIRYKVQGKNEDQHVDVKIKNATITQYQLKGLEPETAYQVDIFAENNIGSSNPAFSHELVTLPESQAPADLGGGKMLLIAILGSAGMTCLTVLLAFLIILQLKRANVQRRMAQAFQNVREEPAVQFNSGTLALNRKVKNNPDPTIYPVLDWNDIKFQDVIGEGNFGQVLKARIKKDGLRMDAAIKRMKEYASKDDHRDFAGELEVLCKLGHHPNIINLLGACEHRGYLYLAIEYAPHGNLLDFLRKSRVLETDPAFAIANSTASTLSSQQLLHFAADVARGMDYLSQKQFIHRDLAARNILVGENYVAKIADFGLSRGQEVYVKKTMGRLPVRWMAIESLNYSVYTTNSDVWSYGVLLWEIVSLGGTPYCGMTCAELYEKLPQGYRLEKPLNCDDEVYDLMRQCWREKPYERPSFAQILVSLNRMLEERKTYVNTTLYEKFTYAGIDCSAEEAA
The target in data set [12] is Epidermal growth factor receptor (Homo sapiens, UniProt P00533).
The target in data set [13] is Proto-oncogene tyrosine-protein kinase Src (Homo sapiens, UniProt P12931). The experiment in a line: Inhibition of Src.
Proto-oncogene tyrosine-protein kinase Src, sequence (P12931 2-536 limits assumed): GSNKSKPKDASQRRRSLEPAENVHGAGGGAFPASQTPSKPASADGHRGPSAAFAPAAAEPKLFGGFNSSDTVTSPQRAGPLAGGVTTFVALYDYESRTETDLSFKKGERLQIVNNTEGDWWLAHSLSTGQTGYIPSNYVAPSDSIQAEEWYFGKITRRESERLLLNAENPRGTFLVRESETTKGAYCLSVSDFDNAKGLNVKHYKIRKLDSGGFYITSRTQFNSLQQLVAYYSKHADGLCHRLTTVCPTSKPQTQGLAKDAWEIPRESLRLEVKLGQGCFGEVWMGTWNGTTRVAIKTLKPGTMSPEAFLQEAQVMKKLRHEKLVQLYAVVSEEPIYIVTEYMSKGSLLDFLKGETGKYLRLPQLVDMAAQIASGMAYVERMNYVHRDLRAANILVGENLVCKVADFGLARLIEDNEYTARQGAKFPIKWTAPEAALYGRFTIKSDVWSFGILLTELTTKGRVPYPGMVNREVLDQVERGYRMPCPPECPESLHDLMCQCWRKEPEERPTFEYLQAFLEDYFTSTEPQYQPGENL
The target in data set [14] is Tyrosine-protein kinase JAK2 (Homo sapiens, UniProt O60674). As to the kind of experiment: Inhibition of Jak2.
Data set [15] has as its target T1, Tyrosine-protein kinase JAK3 (Homo sapiens, UniProt P52333).
T1 sequence (P52333 whole entry): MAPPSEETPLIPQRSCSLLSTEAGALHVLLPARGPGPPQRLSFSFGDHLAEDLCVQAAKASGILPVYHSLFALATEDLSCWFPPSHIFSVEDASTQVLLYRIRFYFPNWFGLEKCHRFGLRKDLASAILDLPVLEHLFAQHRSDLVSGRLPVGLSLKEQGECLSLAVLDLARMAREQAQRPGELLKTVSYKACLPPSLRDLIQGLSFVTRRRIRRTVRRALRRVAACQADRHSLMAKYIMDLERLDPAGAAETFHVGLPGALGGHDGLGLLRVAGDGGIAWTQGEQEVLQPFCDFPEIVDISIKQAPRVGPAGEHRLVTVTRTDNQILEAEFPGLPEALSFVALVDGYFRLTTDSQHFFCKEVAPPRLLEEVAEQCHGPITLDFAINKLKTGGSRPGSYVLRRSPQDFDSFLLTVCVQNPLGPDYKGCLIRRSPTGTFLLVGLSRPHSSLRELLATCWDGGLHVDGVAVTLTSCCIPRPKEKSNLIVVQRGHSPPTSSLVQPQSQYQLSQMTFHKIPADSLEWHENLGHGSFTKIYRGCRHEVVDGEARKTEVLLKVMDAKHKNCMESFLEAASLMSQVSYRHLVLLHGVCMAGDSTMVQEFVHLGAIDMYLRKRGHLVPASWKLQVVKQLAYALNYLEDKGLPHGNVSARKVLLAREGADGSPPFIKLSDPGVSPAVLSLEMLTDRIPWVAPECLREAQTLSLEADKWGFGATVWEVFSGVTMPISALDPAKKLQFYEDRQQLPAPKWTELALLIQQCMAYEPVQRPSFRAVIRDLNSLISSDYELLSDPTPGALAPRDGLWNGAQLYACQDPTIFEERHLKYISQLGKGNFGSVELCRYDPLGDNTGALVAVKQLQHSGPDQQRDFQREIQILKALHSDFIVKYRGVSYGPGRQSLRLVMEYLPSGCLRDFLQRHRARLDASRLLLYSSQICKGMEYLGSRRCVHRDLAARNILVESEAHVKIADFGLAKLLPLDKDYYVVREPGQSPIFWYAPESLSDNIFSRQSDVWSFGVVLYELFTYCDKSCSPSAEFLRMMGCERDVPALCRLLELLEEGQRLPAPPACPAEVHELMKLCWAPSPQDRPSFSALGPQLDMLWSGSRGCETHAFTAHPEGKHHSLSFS
The experiment in a line: Inhibition of Jak3.

In data set [16] the target is T2, Tyrosine-protein kinase ZAP-70 (Homo sapiens, UniProt P43403).
T2 sequence (P43403 whole entry): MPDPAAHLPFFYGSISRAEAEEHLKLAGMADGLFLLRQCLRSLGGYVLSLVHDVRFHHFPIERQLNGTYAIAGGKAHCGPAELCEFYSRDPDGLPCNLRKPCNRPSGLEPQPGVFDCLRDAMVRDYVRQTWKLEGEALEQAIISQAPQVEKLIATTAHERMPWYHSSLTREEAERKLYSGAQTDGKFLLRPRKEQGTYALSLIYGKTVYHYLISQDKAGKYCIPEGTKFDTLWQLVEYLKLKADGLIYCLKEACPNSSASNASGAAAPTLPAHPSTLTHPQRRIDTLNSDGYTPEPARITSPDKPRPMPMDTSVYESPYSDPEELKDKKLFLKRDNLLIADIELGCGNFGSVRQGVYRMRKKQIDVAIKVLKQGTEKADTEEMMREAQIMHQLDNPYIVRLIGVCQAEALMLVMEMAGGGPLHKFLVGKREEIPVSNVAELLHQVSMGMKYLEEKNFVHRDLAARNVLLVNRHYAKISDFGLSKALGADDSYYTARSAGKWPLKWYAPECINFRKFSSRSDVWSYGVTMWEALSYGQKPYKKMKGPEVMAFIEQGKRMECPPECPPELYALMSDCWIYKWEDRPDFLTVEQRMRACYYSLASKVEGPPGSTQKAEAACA
As to the kind of experiment: Inhibition of ZAP70.

For data set [17], the target named is Vascular endothelial growth factor receptor 2 (Homo sapiens, UniProt P35968). As to the kind of experiment: Inhibition of KDR.
Vascular endothelial growth factor receptor 2, sequence (P35968 whole entry): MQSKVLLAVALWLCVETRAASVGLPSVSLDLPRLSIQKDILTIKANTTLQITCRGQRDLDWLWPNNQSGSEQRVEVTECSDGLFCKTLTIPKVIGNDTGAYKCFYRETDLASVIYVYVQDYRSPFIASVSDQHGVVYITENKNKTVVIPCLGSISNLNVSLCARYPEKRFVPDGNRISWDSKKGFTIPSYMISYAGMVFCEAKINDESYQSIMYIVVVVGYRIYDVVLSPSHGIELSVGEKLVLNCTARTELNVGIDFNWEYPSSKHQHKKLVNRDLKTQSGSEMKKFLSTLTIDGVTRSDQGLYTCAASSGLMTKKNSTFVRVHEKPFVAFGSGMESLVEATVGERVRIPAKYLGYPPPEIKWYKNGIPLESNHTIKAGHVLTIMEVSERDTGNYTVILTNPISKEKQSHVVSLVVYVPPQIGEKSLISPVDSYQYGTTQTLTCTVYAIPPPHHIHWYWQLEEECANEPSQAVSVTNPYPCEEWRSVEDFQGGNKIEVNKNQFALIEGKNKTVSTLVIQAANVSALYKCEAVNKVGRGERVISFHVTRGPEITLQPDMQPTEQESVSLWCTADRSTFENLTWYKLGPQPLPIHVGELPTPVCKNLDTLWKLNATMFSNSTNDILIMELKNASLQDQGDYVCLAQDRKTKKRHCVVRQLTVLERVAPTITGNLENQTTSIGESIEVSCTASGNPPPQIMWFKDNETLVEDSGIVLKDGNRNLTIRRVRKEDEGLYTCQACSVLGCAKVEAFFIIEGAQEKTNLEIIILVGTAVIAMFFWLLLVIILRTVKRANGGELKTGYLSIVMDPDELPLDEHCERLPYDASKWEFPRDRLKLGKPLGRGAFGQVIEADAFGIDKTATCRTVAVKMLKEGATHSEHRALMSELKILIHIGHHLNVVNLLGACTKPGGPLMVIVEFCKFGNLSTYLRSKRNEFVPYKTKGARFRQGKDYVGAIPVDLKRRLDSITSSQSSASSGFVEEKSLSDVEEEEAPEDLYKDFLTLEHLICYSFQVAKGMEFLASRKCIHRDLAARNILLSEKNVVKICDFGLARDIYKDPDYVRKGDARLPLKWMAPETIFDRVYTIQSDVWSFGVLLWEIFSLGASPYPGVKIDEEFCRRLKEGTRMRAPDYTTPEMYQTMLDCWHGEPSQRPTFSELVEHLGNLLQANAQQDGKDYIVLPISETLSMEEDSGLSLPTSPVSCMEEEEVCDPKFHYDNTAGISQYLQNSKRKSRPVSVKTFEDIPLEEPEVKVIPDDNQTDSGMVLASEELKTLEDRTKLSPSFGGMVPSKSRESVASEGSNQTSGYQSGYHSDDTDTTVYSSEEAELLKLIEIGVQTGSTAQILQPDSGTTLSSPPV
A short description of data set [18]: Inhibition of IGFR. On the set-up: species or system Homo sapiens.

As a reminder, the IC50 is the concentration needed to halve the response being measured. Read a high IC50 as lower potency. `c1ccc(-c2oc3ncnc(NC[C@H]4CCCO4)c3c2-c2ccccc2)cc1`: the concentration for half-maximal inhibition (IC50) in [1] was determined as 2130 nM; in data set [2] it was 523 nM; in data set [3], 1210 nM.

Regarding `c1ccc(-c2oc3ncnc(NC[C@@H]4CCCO4)c3c2-c2ccccc2)cc1`, the IC50 in data set [4] was found to be 2410 nM; in [1], 8950 nM; in data set [2] it was 24 nM; in data set [3], 122 nM.

Usually half-life stands for the time in which the quantity being followed falls by half. Lower therefore signals fast loss. In general, bioavailability refers to dose-corrected exposure relative to a reference, in per cent. Read a high bioavailability as much systemic uptake. Usually Cmax stands for the maximum level reached in the sampled fluid or tissue. A word on the clearance: it is the volume of plasma or blood freed of the substance per unit of time. Low values mean a low capacity for elimination, high ones a high capacity for elimination. The term AUC(0-inf) denotes total exposure, with the tail of the curve extrapolated. The low end stands for low exposure, the high end for high exposure. Take `c1ccc(-c2oc3ncnc(NCCN4CCNCC4)c3c2-c2ccccc2)cc1`: in data set [5], the half-life is 2.37 h. This compound had a bioavailability in data set [6] of 15%. Besides, the Vd in data set [7] was found to be 2.77 L/kg. Moreover, the results for the IC50 in data set [4], in [1] and in data set [2] were 690 nM, 1710 nM and 181 nM, respectively. The compound also showed a peak concentration (Cmax) in data set [8] of 180 ng/mL. The compound further gave a clearance in data set [9] of 14.8 mL/min/kg. In data set [10], the AUC(0-inf) turned out to be 1040 ng·h/mL.

Regarding `c1ccc(-c2c(-c3ccc(OCCN4CCCC4)cc3)oc3ncnc(NCCN4CCNCC4)c23)cc1`, the IC50 is more than 25000 nM in data set [11]; 397 nM in data set [12]; 45 nM in data set [13]; 430 nM in data set [4]; 227 nM in data set [1]; more than 8330 nM in [14]. Moreover, the IC50 in data set [15] was determined as 960 nM; in data set [2], 98 nM; in data set [3], 9 nM; in data set [16] it was 992 nM; in data set [17], 3100 nM; in data set [18] it was 3150 nM.

For the compound `c1ccc(-c2c(-c3ccc(OCCN4CCCC4)cc3)oc3ncnc(NCCC4CCNCC4)c23)cc1`, the IC50 in [1] came to 2450 nM; in data set [2] it was 332 nM; in [3], 14 nM.

As to `CN(C)CCOc1ccc(-c2oc3ncnc(NC[C@@H]4CCCO4)c3c2-c2ccccc2)cc1`, the IC50 came out at 119 nM in data set [4], 464 nM in data set [1], 11 nM in [2] and 6 nM in data set [3].

Consider `c1ccc(-c2c(-c3ccc(OCCN4CCCC4)cc3)oc3ncnc(NC[C@@H]4CCCO4)c23)cc1`, for which the IC50 in data set [4] came out at 435 nM; in [1], 670 nM; in [2], 16 nM; in [3], 11 nM.

For `c1ccc(CCNc2ncnc3oc(-c4ccc(OCCN5CCCC5)cc4)c(-c4ccccc4)c23)cc1`, the IC50 stood at 5720 nM in [4], 1670 nM in data set [1], 1 nM in data set [2] and 5 nM in data set [3].

Regarding `CN1CCN(Cc2ccc(-c3oc4ncnc(NC[C@@H]5CCCO5)c4c3-c3ccccc3)cc2)CC1`, the IC50 in data set [4] was found to be 293 nM; in data set [1] it was 337 nM; in [2], 7 nM; in [3], 6 nM.

`CC(C)Nc1ncnc2oc(-c3ccc(OCCN4CCCC4)cc3)c(-c3ccccc3)c12`: the IC50 in data set [11] was more than 8330 nM; in data set [12], 1030 nM; in data set [13] it was 914 nM; in data set [4], 199 nM; in [1] it was 533 nM; in [14], 4890 nM. The IC50 in data set [15] came out at 1430 nM; in data set [2], 78 nM; in [3], 36 nM; in data set [16], 3270 nM; in data set [17] it was 537 nM; in data set [18] it was 1490 nM.

Turning to `CCN1CCN(C(=O)c2ccc(-c3oc4ncnc(NC[C@@H]5CCCO5)c4c3-c3ccccc3)cc2)CC1`, the IC50 worked out at 2420 nM in [4], 437 nM in data set [1], 13 nM in data set [2] and 11 nM in [3].

As for `c1ccc(-c2c(-c3ccc(N4CCOCC4)cc3)oc3ncnc(NCCN4CCNCC4)c23)cc1`, the IC50 is 227 nM in data set [1], 17 nM in [2] and 11 nM in [3].

Take `CN1CCOc2cc(-c3oc4ncnc(NCCN5CCNCC5)c4c3-c3ccccc3)ccc21`: the results for the half-maximal inhibitory concentration (IC50) in data set [1], in [2] and in data set [3] were 3080 nM, 97 nM and 42 nM, respectively.

Turning to `c1ccc(-c2c(-c3ccc(CN4CCOCC4)cc3)oc3ncnc(NCCN4CCNCC4)c23)cc1`, the IC50 in data set [1] stood at 138 nM; in data set [2] it was 91 nM; in [3], 27 nM.

With `O=C(c1ccc(-c2oc3ncnc(NCCN4CCNCC4)c3c2-c2ccccc2)cc1)N1CCCCC1`, the IC50 in data set [1] came out at 121 nM; in [2], 85 nM; in data set [3], 22 nM.

`CN(C)CCOc1ccc(-c2oc3ncnc(NCCN4CCNCC4)c3c2-c2ccccc2)cc1`: the half-inhibitory concentration (IC50) worked out at 468 nM in [4], 360 nM in data set [1], 148 nM in data set [2] and 14 nM in data set [3].

Consider `COc1cc(-c2oc3ncnc(NCCN4CCNCC4)c3c2-c2ccccc2)ccc1OCCN1CCCCC1`, for which the IC50 in [4] came out at 2630 nM; in data set [1], 3220 nM; in data set [2], 586 nM; in data set [3] it was 22 nM.

As for `CC(C)(C)Nc1ncnc2oc(-c3ccc(OCCN4CCCC4)cc3)c(-c3ccccc3)c12`, the IC50 stood at 3260 nM in data set [4], 2380 nM in data set [1], 650 nM in [2] and 83 nM in data set [3].

For `COc1cc(-c2oc3ncnc(NC[C@@H]4CCCO4)c3c2-c2ccccc2)ccc1OCCN1CCCCC1`, the IC50 in data set [4] was 193 nM; in [1], 825 nM; in data set [2], 38 nM; in data set [3], 8 nM.
